Measurements from ChEMBL document CHEMBL2407043, “Hydantoin based inhibitors of MMP13--discovery of AZD6605” (Bioorg Med Chem Lett, 2013).
Values after ≈ are worked out from the molar mass of the structure shown.

Assays:
[1] = species: Rattus norvegicus; experiment: Toxicity in rat assessed as fibrodysplasia after 28 days; assay type: organism-based; settings: in vivo, 672 h
[2] = species: Rattus norvegicus; experiment: Toxicity in rat assessed as change in connective tissue after 28 days; assay type: organism-based; settings: in vivo, 672 h
[3] = Genotoxicity in mouse lymphoma cells; assay type: toxicity, cell-based
[4] = test system: Salmonella typhimurium; experiment: Mutagenic activity in Salmonella typhimurium by Ames assay; assay type: toxicity, organism-based; settings: salmonella enterica subsp. enterica serovar typhimurium
[5] = species: Rattus norvegicus; experiment: Toxicity in rat assessed as change in clinical chemistry or hematological parameters after 28 days; assay type: organism-based; settings: in vivo, 672 h
[6] = species: Rattus norvegicus; experiment: Toxicity in rat assessed as change in body weight after 28 days; assay type: organism-based; settings: in vivo, 672 h
[7] = species: Rattus norvegicus; experiment: Toxicity in rat assessed as change in food and water consumption after 28 days; assay type: organism-based; settings: in vivo, 672 h
[8] = species: Rattus norvegicus; experiment: Toxicity in rat assessed as mortality after 28 days; assay type: organism-based; settings: in vivo, 672 h
[9] = Oral bioavailability in dog at 1 mg/kg; assay type: ADME, organism-based, Canis lupus familiaris; settings: in vivo
[10] = Oral bioavailability in rat at 5 mg/kg; assay type: ADME, organism-based; settings: in vivo
[11] = Half life in dog at 0.5 mg/kg, iv and 1 mg/kg, po; assay type: ADME, organism-based, Canis lupus familiaris; settings: in vivo
[12] = Volume of distribution at steady state in dog at 0.5 mg/kg, iv and 1 mg/kg, po; assay type: ADME, organism-based, Canis lupus familiaris; settings: in vivo, read-out: Vdss
[13] = Clearance in dog at 0.5 mg/kg, iv and 1 mg/kg, po; assay type: ADME, organism-based, Canis lupus familiaris; settings: in vivo
[14] = Volume of distribution at steady state in rat at 2 mg/kg, iv and 5 mg/kg, po; assay type: ADME, organism-based; settings: in vivo, read-out: Vdss
[15] = Half life in rat at 2 mg/kg, iv and 5 mg/kg, po; assay type: ADME, organism-based; settings: in vivo
[16] = Clearance in rat at 2 mg/kg, iv and 5 mg/kg, po; assay type: ADME, organism-based; settings: in vivo
[17] = Apparent permeability across basolateral to apical side in human Caco2 cells at 10 uM; assay type: ADME, cell-based; settings: Caco-2
[18] = molecular target: Cytochrome P450 3A4 (Homo sapiens, UniProt P08684); experiment: Inhibition of human CYP3A4; assay type: ADME
[19] = molecular target: Cytochrome P450 2D6 (Homo sapiens, UniProt P10635); experiment: Inhibition of human CYP2D6; assay type: ADME
[20] = molecular target: Cytochrome P450 2C9 (Homo sapiens, UniProt P11712); experiment: Inhibition of human CYP2C9; assay type: ADME
[21] = molecular target: Cytochrome P450 2C19 (Homo sapiens, UniProt P33261); experiment: Inhibition of human CYP2C19; assay type: ADME
[22] = molecular target: T1, Cytochrome P450 1A2 (Homo sapiens, UniProt P05177); experiment: Inhibition of human CYP1A2; assay type: ADME
T1 sequence (P05177 whole entry): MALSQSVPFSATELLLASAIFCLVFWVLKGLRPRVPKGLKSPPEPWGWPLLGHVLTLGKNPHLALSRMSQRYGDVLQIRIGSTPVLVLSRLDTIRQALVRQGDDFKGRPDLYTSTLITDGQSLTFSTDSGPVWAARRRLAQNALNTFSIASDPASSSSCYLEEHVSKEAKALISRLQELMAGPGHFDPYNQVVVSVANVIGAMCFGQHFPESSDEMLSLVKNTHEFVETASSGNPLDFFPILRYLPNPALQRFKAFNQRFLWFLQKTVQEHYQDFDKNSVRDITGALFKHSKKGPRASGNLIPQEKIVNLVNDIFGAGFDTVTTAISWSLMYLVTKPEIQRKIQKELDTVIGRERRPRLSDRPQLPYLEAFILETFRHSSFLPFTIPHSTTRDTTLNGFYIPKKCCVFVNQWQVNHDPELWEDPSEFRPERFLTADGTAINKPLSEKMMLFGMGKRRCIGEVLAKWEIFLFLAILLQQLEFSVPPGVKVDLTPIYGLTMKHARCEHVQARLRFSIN

[23] = Fraction unbound in dog plasma; assay type: ADME, cell-free, Canis lupus familiaris
[24] = Fraction unbound in human plasma; assay type: ADME, cell-free
[25] = Fraction unbound in rat plasma; assay type: ADME, cell-free
[26] = Solubility of compound in fasted state simulated intestinal fluid; assay type: physicochemical
[27] = molecular target: Matrix metalloproteinase-14 (Homo sapiens, UniProt P50281)
[28] = Intrinsic clearance in human hepatocytes measured per 10^6 cells; assay type: ADME, cell-based, Hepatocyte; settings: read-out: CLH
[29] = in vitro; settings: human, Caco-2
[30] = physchem; settings: buffer, pH 7.4
[31] = in vitro; settings: human, liver microsomes
[32] = species: Cavia porcellus; experiment: animal or person; settings: Dunkin Hartley, sc, 2016 h, read-out: INH
[33] = Thermodynamic solubility of the compound in phosphate buffer at pH 7.4 at 25 degC after 24 hrs; settings: read-out: Therm_solubility

Cytochrome P450 2C9, sequence (P11712 whole entry): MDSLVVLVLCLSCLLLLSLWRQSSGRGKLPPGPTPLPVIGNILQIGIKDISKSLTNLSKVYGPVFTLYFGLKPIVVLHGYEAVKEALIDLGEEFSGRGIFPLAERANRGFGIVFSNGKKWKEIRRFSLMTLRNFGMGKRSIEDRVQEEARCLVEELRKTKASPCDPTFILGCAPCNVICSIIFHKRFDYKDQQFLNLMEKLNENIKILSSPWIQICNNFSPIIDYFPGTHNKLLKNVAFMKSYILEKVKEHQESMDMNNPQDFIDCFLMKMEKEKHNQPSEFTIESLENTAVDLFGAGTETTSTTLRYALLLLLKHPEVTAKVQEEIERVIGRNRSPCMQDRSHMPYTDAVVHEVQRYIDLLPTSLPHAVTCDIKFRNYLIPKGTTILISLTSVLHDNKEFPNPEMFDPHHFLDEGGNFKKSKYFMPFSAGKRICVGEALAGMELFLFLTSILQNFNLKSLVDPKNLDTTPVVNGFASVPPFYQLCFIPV
Cytochrome P450 2C19, sequence (P33261 whole entry): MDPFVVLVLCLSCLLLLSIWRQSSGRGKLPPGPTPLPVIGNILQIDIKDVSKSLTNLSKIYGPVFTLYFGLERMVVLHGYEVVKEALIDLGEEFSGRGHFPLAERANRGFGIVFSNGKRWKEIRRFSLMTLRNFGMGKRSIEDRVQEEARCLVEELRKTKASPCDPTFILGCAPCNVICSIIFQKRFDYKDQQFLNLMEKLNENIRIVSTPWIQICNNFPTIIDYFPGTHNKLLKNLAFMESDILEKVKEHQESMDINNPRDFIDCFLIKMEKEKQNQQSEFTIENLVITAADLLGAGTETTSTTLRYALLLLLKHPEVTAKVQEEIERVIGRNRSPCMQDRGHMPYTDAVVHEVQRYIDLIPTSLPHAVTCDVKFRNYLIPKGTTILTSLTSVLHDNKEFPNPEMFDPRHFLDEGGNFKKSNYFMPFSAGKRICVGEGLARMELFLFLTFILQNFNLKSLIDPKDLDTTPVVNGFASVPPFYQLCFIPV
Cytochrome P450 2D6, sequence (P10635 whole entry): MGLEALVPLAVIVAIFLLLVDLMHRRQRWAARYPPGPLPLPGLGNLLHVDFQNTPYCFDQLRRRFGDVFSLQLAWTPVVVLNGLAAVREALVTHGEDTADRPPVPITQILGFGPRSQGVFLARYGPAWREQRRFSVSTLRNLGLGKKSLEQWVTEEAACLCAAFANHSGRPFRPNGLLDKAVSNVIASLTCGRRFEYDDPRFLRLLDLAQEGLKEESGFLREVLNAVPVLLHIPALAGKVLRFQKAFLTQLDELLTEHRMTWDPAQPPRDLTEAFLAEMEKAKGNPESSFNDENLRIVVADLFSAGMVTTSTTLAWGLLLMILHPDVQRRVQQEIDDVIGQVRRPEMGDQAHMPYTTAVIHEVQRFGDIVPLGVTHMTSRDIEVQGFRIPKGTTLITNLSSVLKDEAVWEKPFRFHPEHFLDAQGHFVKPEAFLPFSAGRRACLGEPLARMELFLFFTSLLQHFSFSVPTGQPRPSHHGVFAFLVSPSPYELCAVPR
Cytochrome P450 3A4, sequence (P08684 whole entry): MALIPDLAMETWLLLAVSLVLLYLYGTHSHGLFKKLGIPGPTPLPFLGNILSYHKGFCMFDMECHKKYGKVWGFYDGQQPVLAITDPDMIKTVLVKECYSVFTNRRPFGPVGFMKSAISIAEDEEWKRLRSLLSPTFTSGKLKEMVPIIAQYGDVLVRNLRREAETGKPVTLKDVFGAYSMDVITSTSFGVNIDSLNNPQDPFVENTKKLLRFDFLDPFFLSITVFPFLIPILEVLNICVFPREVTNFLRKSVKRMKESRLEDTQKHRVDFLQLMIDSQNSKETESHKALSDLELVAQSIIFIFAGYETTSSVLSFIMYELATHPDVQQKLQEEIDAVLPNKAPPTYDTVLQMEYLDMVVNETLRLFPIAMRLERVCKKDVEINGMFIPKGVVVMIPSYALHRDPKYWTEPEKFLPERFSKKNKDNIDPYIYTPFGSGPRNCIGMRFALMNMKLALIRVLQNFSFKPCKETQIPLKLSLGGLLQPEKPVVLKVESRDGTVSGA

For C[C@]1(CS(=O)(=O)N2CCC(Oc3ccc(OC(F)(F)C(F)F)cc3)CC2)NC(=O)NC1=O, which Activity [1] is on record?
Its Activity is “Non-toxic”.

What about the Activity [2] of the same compound?
The Activity was “Non-toxic”.

What about the Activity [3] of the same compound?
Its Activity is “Non-toxic”.

What about the Activity [4] of the same compound?
The Activity was “Non-toxic”.

And the Activity [5]?
The Activity was “Non-toxic”.

And the Activity [6]?
The Activity was “Non-toxic”.

What about the Activity [7] of the same compound?
The Activity was “Non-toxic”.

What about the Activity [8] of the same compound?
The Activity was “Non-toxic”.

What about the bioavailability [9] of the same compound?
The bioavailability was 40%.

And the bioavailability [10]?
Its bioavailability is 64%.

What about the half-life [11] of the same compound?
The half-life was 2100 min.

What about the Vd [12] of the same compound?
The Vd was 0.6 L/kg.

What about the clearance [13] of the same compound?
Its clearance is 0.2 mL/min/kg.

And the Vd [14]?
Its Vd is 0.6 L/kg.

What about the half-life [15] of the same compound?
Its half-life is 960 min.

What about the clearance [16] of the same compound?
Its clearance is 0.4 mL/min/kg.

What about the Papp B→A at 10 µM [17] of the same compound?
The Papp B→A at 10 µM was 52 ×10⁻⁶ cm/s.

And the IC50 [18]?
Its IC50 is greater than 10 µM.

And the IC50 [19]?
Its IC50 is greater than 10 µM.

And the IC50 [20]?
Its IC50 is greater than 10 µM.

And the IC50 [21]?
The IC50 was greater than 10 µM.

And the IC50 [22]?
Its IC50 is greater than 10 µM.

And the fraction unbound [23]?
The fraction unbound was 0.05.

What about the fraction unbound [24] of the same compound?
Its fraction unbound is 0.05.

And the fraction unbound [25]?
The fraction unbound was 0.03.

What about the solubility [26] of the same compound?
Its solubility is 14.9 µM (≈ 7.2 µg/mL).

What about the IC50 [27] of the same compound?
The IC50 was 2220 nM.

What about the hepatocyte CLint [28] of the same compound?
The hepatocyte CLint was less than 2 µL/min/1e6 cells.

And the Papp A→B at 10 µM [29]?
The Papp A→B at 10 µM was 21 ×10⁻⁶ cm/s.

What about the logD [30] of the same compound?
Its logD is 2.

What about the microsomal CLint [31] of the same compound?
The microsomal CLint was less than 2 µL/min/mg.

What about the inhibition in vivo at 11 mg/kg/day [32] of the same compound?
The inhibition in vivo at 11 mg/kg/day was 104%.

What about the solubility thermodynamic at 24 h [33] of the same compound?
Its solubility thermodynamic at 24 h is 6.8 µM (≈ 3.29 µg/mL).
